Experimental data as given in patent US9346776B2, “Fused heterocyclic compound” (Takeda Pharmaceutical Company Limited, priority 2014, dated 2016).
Each block holds one molecule with its values, some of them ahead of it.

Legend:
[1] = molecular target: T1, Human recombinant enteropeptidase (Homo sapiens, UniProt P98073); assay: Human enteropeptidase inhibitory activity; assay type: biochemical; settings: 3.3 uM compound; fluorescence 2 hours after start of reaction; read-out: Inhibition rate at 3.3 uM (%)
T1 construct: purchased ITSI-Biosciences, LLC #REN-260
T1 sequence (P98073 whole entry): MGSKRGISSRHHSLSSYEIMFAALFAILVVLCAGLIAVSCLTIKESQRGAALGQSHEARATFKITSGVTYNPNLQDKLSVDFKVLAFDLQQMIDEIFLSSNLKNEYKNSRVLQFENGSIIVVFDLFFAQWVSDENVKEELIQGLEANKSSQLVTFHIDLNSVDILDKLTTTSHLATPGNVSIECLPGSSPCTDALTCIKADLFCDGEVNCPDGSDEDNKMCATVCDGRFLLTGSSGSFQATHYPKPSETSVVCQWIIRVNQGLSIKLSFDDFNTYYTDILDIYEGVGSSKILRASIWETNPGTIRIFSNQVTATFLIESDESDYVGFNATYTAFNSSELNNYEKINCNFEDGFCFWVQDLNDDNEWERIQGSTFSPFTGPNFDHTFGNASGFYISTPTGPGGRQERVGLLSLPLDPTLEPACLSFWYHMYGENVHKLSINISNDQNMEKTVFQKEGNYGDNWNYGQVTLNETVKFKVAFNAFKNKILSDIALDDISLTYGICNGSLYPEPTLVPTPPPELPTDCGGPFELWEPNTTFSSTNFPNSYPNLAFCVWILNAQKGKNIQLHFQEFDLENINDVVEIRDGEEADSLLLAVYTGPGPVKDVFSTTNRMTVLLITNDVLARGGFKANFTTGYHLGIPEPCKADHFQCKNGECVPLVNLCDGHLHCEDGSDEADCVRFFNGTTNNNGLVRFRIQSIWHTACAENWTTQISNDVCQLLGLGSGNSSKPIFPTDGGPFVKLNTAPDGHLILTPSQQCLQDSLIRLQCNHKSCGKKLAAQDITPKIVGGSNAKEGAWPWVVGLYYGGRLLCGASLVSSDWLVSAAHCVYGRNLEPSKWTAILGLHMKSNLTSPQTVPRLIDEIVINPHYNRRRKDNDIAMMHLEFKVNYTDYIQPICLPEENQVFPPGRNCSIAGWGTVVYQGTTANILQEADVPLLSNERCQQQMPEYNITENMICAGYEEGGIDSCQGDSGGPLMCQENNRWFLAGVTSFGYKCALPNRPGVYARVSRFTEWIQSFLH
Experimental: Test Example 1 Human enteropeptidase inhibitory activity Human recombinant enteropeptidase (#REN-260, ITSI-Biosciences, LLC) was diluted with an assay buffer (50 mM Tricine (pH 8.0), 0.01 (w/v) % Tween 20, 10 mM CaCl2) to prepare a 24 mU/mL enzyme solution. Subsequently, 5FAM-Abu-Gly-Asp-Asp-Asp-Lys-Ile-Val-Gly-Gly-Lys(CPQ2)-Lys-Lys-NH2 (purity: 97.2%, CPC Scientific, Inc.) produced according to a synthesis method known per se was diluted with an assay buffer to prepare a 2.1 uM (“u” represents “micro”) substrate solution. Each test compound was dissolved in DMSO to prepare a 1 mM solution, which was then diluted 100-fold with an assay buffer to prepare a compound solution. The compound solution (5 uL/well) and the substrate solution (5 uL/well) were added to a 384-well black plate (#784076, Greiner Bio-One) and mixed. Then, the enzyme solution (5 uL/well) was added to the plate and mixed to start reaction. The fluorescence intensity was measured at an excitation wavelength of 485 nm and a fluorescence wavelength of 535 nm using a fluorescence plate reader EnVision (PerkinElmer Inc.). Also, the same reaction as above was performed except that the test compound was not added (test compound non-supplemented group). In addition, the same reaction as above was performed except that neither the test compound nor the enzyme was added (control group). The inhibition rate was calculated from the fluorescence intensity 2 hours after the start of the reaction according to the following equation: Inhibition rate (%)=(1−(Fluorescence intensity of the test compound supplemented group−Fluorescence intensity of the control group)/(Fluorescence intensity of the test compound non-supplemented group−Fluorescence intensity of the control group))×100

[2] = test system: high fat diet-fed (HFD-fed) mouse; assay: Test on elevation of protein concentration in feces using HFD-fed mouse; assay type: in vivo; settings: 10 mg/kg oral, feces recovered at day 1, mean ± SD, 5 mice
Experimental: Test Example 2 Test on elevation of protein concentration in feces using HFD-fed mouse A 0.5% methylcellulose suspension (test compound administered group, 5 mice per group) containing each test compound (10 mg/kg) or a 0.5% methylcellulose suspension (test compound non-administered group (vehicle), 5 mice per group) was orally administered to each high fat diet-fed (HFD-fed) mouse (D12079B diet, male, 18 weeks old), and the whole feces were recovered at day 1 of administration. The dry feces were dissolved in a 0.5 N aqueous sodium hydroxide solution. After centrifugation at 12,000 rpm, a protein concentration was quantified (Lowry method) using the supernatant to calculate a protein concentration (mg/g feces) in 1 g of feces. The mean and standard deviation of each group are shown below.

[3] = test system: diet-induced obesity (DIO) mouse; assay: Test on antiobesity action using DIO mouse; assay type: in vivo; settings: mean ± SD; for Body weight(g) At start of administration: baseline
Experimental: Test Example 3 Test on antiobesity action using DIO mouse A 0.5% methylcellulose suspension (test compound administered group, 5 or 6 mice per group) containing each test compound (20 or 60 mg/kg) or a 0.5% methylcellulose suspension (test compound non-administered group (vehicle), 6 mice per group) was orally administered to each diet-induced obesity (DIO) mouse (D12079B diet, male, 46 weeks old) once a day for 4 weeks. The means of body weights and standard deviations at the start of administration and after 4-week continuous administration are shown below.

Male ob/ob mice = assay: Hypoglycemic action on diabetes mellitus animal model (2-week continuous administration); assay type: in vivo, mouse; settings: feed containing 0.03% compound for 2 weeks, mean ± SD
Excerpt: Test Example 4 Hypoglycemic action on diabetes mellitus animal model (2-week continuous administration) Male ob/ob mice (6 weeks old) were used to prepare two groups each involving 5 individuals. One of the groups was fed as a control with feed free from a compound for 2 weeks, while the other group to receive compound treatment was fed with feed containing a compound at a concentration of 0.03% for 2 weeks. After 2 weeks, blood was collected from the tail vein of each mouse, and a diabetes mellitus-ameliorating action brought about by the compound treatment was evaluated. Blood glucose levels were measured using Hitachi automatic analyzer model 7180 (Hitachi, Ltd.), and glycated hemoglobin levels were measured using Tosoh automatic glycohemoglobin analyzer HLC-723G8 (Tosoh Corp.). The blood glucose and glycated hemoglobin levels of each group after the 2-week administration are indicated by mean±standard deviation in Table 6.

[4] = 20 mg/kg oral once a day for 4 weeks
[5] = 60 mg/kg oral once a day for 4 weeks

inhibition at 3.3 µM [1]: 101%
SMILES: N=C(N)Nc1ccc(C(=O)Oc2ccc3c(c2)OC[C@H]3CC(=O)N[C@@H](CC(=O)O)C(=O)O)cc1 [Example 1, N-(((3S)-6-((4-Carbamimidamidobenzoyl)oxy)-2,3-dihydro-1-benzofuran-3-yl)acetyl)-L-aspartic acid]
Protein concentration in feces (mg/g feces) [2]: 177.6 ± 35.2 mg/g feces
Body weight(g) After 4-week continous administration [3, 4]: 43.8 ± 1.7 g
Body weight(g) At start of administration ([3]; 20 mg/kg oral once a day): 48.3 ± 2.0 g
Body weight(g) After 4-week continous administration [3, 5]: 41.7 ± 2.8 g
Body weight(g) At start of administration ([3]; 60 mg/kg oral once a day): 49.5 ± 2.2 g

inhibition at 3.3 µM [1]: 101%
SMILES: N=C(N)Nc1ccc(C(=O)Oc2ccc3c(c2)OC[C@@H]3CC(=O)N[C@@H](CC(=O)O)C(=O)O)cc1 [Example 2, N-(((3R)-6-((4-Carbamimidamidobenzoyl)oxy)-2,3-dihydro-1-benzofuran-3-yl)acetyl)-L-aspartic acid]
Protein concentration in feces (mg/g feces) [2]: 149.8 ± 24.4 mg/g feces
Body weight(g) After 4-week continous administration [3, 4]: 46.0 ± 2.8 g
Body weight(g) At start of administration ([3]; 20 mg/kg oral once a day): 49.6 ± 2.6 g
Body weight(g) After 4-week continous administration [3, 5]: 44.4 ± 4.5 g
Body weight(g) At start of administration ([3]; 60 mg/kg oral once a day): 49.8 ± 2.8 g

inhibition at 3.3 µM [1]: 100%
SMILES: Cc1cc(OC(=O)c2ccc(NC(=N)N)cc2)cc2c1C(CC(=O)N[C@@H](CC(=O)O)C(=O)O)CO2 (stereo partly drawn) [Example 3, N-((6-((4-Carbamimidamidobenzoyl)oxy)-4-methyl-2,3-dihydro-1-benzofuran-3-yl)acetyl)-L-aspartic acid]

inhibition at 3.3 µM [1]: 100%
SMILES: N=C(N)Nc1ccc(C(=O)Oc2ccc3c(c2)OC[C@H]3CC(=O)N[C@H](CC(=O)O)C(=O)O)cc1 [Example 4, N-(((3S)-6-((4-carbamimidamidobenzoyl)oxy)-2,3-dihydro-1-benzofuran-3-yl)acetyl)-D-aspartic acid]

inhibition at 3.3 µM [1]: 101%
SMILES: N=C(N)Nc1ccc(C(=O)Oc2ccc3c(c2)OC[C@@H]3CC(=O)N[C@H](CC(=O)O)C(=O)O)cc1 [Example 5, N-(((3R)-6-((4-carbamimidamidobenzoyl)oxy)-2,3-dihydro-1-benzofuran-3-yl)acetyl)-D-aspartic acid]

inhibition at 3.3 µM [1]: 100%
SMILES: N=C(N)Nc1ccc(C(=O)Oc2cc(F)c3c(c2)OCC3CC(=O)N[C@@H](CC(=O)O)C(=O)O)cc1 (stereo partly drawn) [Example 10, N-((6-((4-Carbamimidamidobenzoyl)oxy)-4-fluoro-2,3-dihydro-1-benzofuran-3-yl)acetyl)-L-aspartic acid]

Continued, molecule first:

SMILES: N=C(N)Nc1ccc(C(=O)Oc2ccc3c(c2)OC[C@@H]3CC(=O)N[C@@H](CCC(=O)O)C(=O)O)cc1 [Example 6, N-(((3R)-6-((4-carbamimidamidobenzoyl)oxy)-2,3-dihydro-1-benzofuran-3-yl)acetyl)-L-glutamic acid]
inhibition at 3.3 µM [1]: 101%

SMILES: N=C(N)Nc1ccc(C(=O)Oc2ccc3c(c2)OC[C@H]3CC(=O)N[C@@H](CCC(=O)O)C(=O)O)cc1 [Example 7]
inhibition at 3.3 µM [1]: 101%

SMILES: N=C(N)Nc1ccc(C(=O)Oc2ccc3c(c2)OC[C@@H]3CC(=O)N(CC(=O)O)CC(=O)O)cc1 [Example 8, 2,2′-((((3R)-6-((4-carbamimidamidobenzoyl)oxy)-2,3-dihydro-1-benzofuran-3-yl)acetyl)imino)diacetic acid]
inhibition at 3.3 µM [1]: 100%

SMILES: N=C(N)Nc1ccc(C(=O)Oc2ccc3c(c2)OC[C@@H]3CC(=O)N(CCC(=O)O)CCC(=O)O)cc1 [Example 9, 3,3′-((((3R)-6-((4-carbamimidamidobenzoyl)oxy)-2,3-dihydro-1-benzofuran-3-yl)acetyl)imino)dipropanic acid]
inhibition at 3.3 µM [1]: 100%

SMILES: Cc1c(OC(=O)c2ccc(NC(=N)N)cc2)ccc2c1OCC2CC(=O)N[C@@H](CC(=O)O)C(=O)O (stereo partly drawn) [Example 11, N-((6-((4-carbamimidamidobenzoyl)oxy)-7-methyl-2,3-dihydro-1-benzofuran-3-yl)acetyl)-L-aspartic acid]
inhibition at 3.3 µM [1]: 98%

SMILES: N=C(N)Nc1ccc(C(=O)Oc2ccc3c(c2)OC[C@H]3CC(=O)N[C@@H](CC(=O)O)C(=O)O)cc1 [Example 12, N-(((3S)-6-((4-Carbamimidamidobenzoyl)oxy)-2,3-dihydro-1-benzofuran-3-yl)acetyl)-L-aspartic acid hydrate]
Blood glucose level (Male ob/ob mice): 144.2 ± 19.5 mg/dL
Glycated hemoglobin level (%) (Male ob/ob mice): 3.5 ± 0.1%
